Experimental data: patent publication US20050101595A1, “N-containing cycloalkyl-substituted amino-thiazole derivatives and pharmaceutical compositions for inhibiting cell proliferation and methods for their use” (PFIZER INC., priority 2003, published 2005)
Where a name gives a salt, the structure may show the parent alone. Read-outs that look alike come from different tables or passages of the source.

Legend:
[1] = molecular target: human CDK4 and genetically truncated (1-264) cyclin D3 (Homo sapiens, UniProt P11802); assay: Inhibition of CDK4/Cyclin D Retinoblastoma Kinase Activity; format: biochemical; conditions: apparent Ki, CDK4/truncated cyclin D3, Rb fragment substrate, 25 μM ATP
Summary of the method: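 The enzyme complex (5 nM), expressed in co-infected insect cells, was incubated with recombinant Rb fragment, 25 μM radiolabelled ATP and 2% DMSO at 30 °C. Reactions were stopped with EDTA after 20 minutes, or 60 minutes for tight-binding inhibitors. Apparent Ki values came from competitive inhibition fits.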

HCT-116 cell line = assay: Inhibition of cell growth, tetrazolium salt (MTT) assay; format: cell-based; conditions: Homo sapiens, HCT-116, 120 h, MTT, three to five days, read-out: HCT-116 IC50
Summary of the method: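 HCT-116 cells in McCoy's 5A medium received compound 4 h after plating (0.5% v/v DMSO) and were incubated three to five days at 37° C, 5% CO2. MTT (0.2 mg/mL final) then added for 4 h; DMSO-solubilized formazan read at 540 nm against 0.5% DMSO-treated controls.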

CDK2/Cyclin A = CDK2/Cyclin A (Homo sapiens, UniProt P24941); assay: Inhibition of CDK2/Cyclin A Retinoblastoma Kinase Activity; format: biochemical; conditions: apparent Ki, CDK2/proteolyzed cyclin A, Rb fragment substrate, 25 μM ATP
Summary of the method: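 CDK2 (10 or 19 nM), insect-cell expressed, gel-filtration purified with truncated cyclin A; Rb fragment substrate; 25 μM ATP; 10 mM HEPES pH 7.4, 10 mM MgCl2; 30° C, 60 or 75 min; EDTA stop; phosphocellulose/nitrocellulose capture, phosphorimager. % inhibition vs DMSO control, no-enzyme background subtracted.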

human CDK4 and genetically truncated (1-264) cyclin D3, sequence (P11802 whole entry, the tested form may be a part): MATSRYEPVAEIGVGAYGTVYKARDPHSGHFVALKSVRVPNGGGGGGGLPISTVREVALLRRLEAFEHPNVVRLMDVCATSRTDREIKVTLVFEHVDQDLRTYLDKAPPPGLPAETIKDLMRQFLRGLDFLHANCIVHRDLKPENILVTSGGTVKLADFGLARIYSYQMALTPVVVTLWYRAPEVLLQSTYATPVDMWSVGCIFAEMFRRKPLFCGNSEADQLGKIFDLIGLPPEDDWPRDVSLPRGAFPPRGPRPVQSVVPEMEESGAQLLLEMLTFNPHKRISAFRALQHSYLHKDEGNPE
human CDK4 and genetically truncated (1-264) cyclin D3, sequence (P30281 1-264 partner): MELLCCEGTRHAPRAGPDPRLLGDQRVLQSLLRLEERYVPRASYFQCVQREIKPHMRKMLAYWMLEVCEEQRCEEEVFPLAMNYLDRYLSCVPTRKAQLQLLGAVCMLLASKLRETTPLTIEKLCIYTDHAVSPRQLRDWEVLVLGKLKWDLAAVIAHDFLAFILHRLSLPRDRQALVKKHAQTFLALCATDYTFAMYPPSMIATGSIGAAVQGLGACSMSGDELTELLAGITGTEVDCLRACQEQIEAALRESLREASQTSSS

SMILES	Ki [1] [nM]	IC50 (HCT-116 cell line; first HCT-116 column (c4)) [nM]	IC50 (HCT-116 cell line; second HCT-116 column (c5)) [nM]	Ki (CDK2/Cyclin A) [nM]
CN1CC[C@@H](c2ccc(S(=O)(=O)N3CCC(Nc4nc(N)c(C(=O)c5c(F)cccc5F)s4)CC3)cc2)C1 [Example F53, (4-Amino-2-{1-[4-(1-methyl-pyrrolidin-3S-yl)-benzenesulfonyl]-piperidin-4-ylamino}-thiazol-5-yl)-(2,6-difluoro-phenyl)-methanone]	0.61	90	500	1.3
Nc1nc(NC2CCN(S(=O)(=O)c3ccc(NCCO)nc3)CC2)sc1C(=O)c1c(F)cccc1F [Example G3, 1-(4-Amino-2{1-[6-(2-hydroxy-ethylamino)-pyridine-3-sulfonyl]-piperidin-4-ylamino}-thiazol-5-yl)-1-(2,6-difluoro-phenyl)-methanone]	1.2	1700	> 5000	< 1
CNc1ccc(S(=O)(=O)N2CCC(Nc3nc(N)c(C(=O)c4c(F)cccc4F)s3)CC2)cn1 [Example G7, 1-{4-Amino-2-[1-(6-methylamino-pyridine-3-sulfonyl)-piperidin-4-ylamino]-thiazol-5-yl}-1-(2,6-difluoro-phenyl)-methanone]	1.6	180	650	0.75
Nc1ccc(S(=O)(=O)N2CCC(Nc3nc(N)c(C(=O)c4c(F)cccc4F)s3)CC2)cn1 [Example G8, 1-{4-Amino-2-[1-(6-amino-pyridine-3-sulfonyl)-piperidin-4-ylamino]-thiazol-5-yl}-1-(2,6-difluoro-phenyl)-methanone]	1.9	590	2200	0.6
CN(CCO)c1ccc(S(=O)(=O)N2CCC(Nc3nc(N)c(C(=O)c4c(F)cccc4F)s3)CC2)cn1 [Example G10]	1.2	670	> 5000	< 1
Nc1nc(NC2CCN(S(=O)(=O)c3ccc(N4CCC(O)C4)nc3)CC2)sc1C(=O)c1c(F)cccc1F (stereo not drawn) [Example G11, 1-(4-Amino-2-{1-[6-(3-hydroxy-pyrrolidin-1-yl)-pyridin-3-sulfonyl]-piperidin-4-ylamino}-thiazol-5-yl)-1-(2,6-difluoro-phenyl)-methanone Trifluoroacetic Acid Salt]	0.86	420	> 5000	< 1
Nc1nc(NC2CCN(S(=O)(=O)c3ccc(N4CCC[C@@H]4CO)nc3)CC2)sc1C(=O)c1c(F)cccc1F [Example G13, 1-{4-Amino-2-{1-[6-(2R-hydroxymethyl-pyrrolidin-1-yl)-pyridine-3-sulfonyl]-piperidin-4-ylamino}-thiazol-5-yl)-1-(2,6-difluoro-phenyl)-methanone Trifluoroacetic Acid Salt]	0.64	170	3900	< 1
C[C@@H]1CN(c2ccc(S(=O)(=O)N3CCC(Nc4nc(N)c(C(=O)c5c(F)cccc5F)s4)CC3)cn2)C[C@H](C)N1 [Example G15, 1-(4-Amino-2-{1-[6-(3,5-dimethyl-piperizin-1-yl)-pyridin-3-sulfonyl]-piperidin-4-ylamino}-thiazol-5-yl)-1-(2,6-difluoro-phenyl)-methanone Trifluoroacetic Acid Salt]	0.28	79	> 500	0.73
C[C@@H](O)CN(C)c1ccc(S(=O)(=O)N2CCC(Nc3nc(N)c(C(=O)c4c(F)cccc4F)s3)CC2)cn1 [Example G17, 1-[4-Amino-2-(1-{6-[((R)-2-hydroxy-propyl)-methyl-amino]-pyridine-3-sulfonyl}-piperidine-4-ylamino)-thiazol-5-yl]-1-(2,6-difluoro-phenyl)-methanone Trifluoroacetic Acid Salt]	1.4	360	900	0.55
Nc1nc(NC2CCN(S(=O)(=O)c3ccc(NCC(O)CO)nc3)CC2)sc1C(=O)c1c(F)cccc1F (stereo not drawn) [Example G19, 1-(4-Amino-2-{1-[6-(2,3-dihydroxy-propylamino)-pyridine-3-sulfonyl]-piperidin-4-ylamino}-thiazol-5-yl)-1-(2,6-difluoro-phenyl)-methanone]	3.4	4100	> 5000	2
CC1=NC(C)CN1c1ccc(S(=O)(=O)N2CCC(Nc3nc(N)c(C(=O)c4c(F)cccc4F)s3)CC2)cn1 (stereo not drawn) [Example G23, 1-(4-Amino-2-{1-[6-(2,4-dimethyl-4,5-dihydro-imidazol-1-yl)-pyridin-3-sulfonyl]-piperidin-4-ylamino}-thiazol-5-yl)-1-(2,6-difluoro-phenyl)-methanone Hydrochloride]	0.44	750	5000	< 1

Further lines, results first:

Ki [1] [nM]	IC50 (HCT-116 cell line; first HCT-116 column (c4)) [nM]	IC50 (HCT-116 cell line; second HCT-116 column (c5)) [nM]	Ki (CDK2/Cyclin A) [nM]	SMILES
0.64	120	> 500	1.4	CN(C)CCN(C)c1ccc(S(=O)(=O)N2CCC(Nc3nc(N)c(C(=O)c4c(F)cccc4F)s3)CC2)cn1 [Example G1, Trifluoroacetic Acid Salt]
0.94	1500	5000	1.4	Nc1nc(NC2CCN(S(=O)(=O)c3ccc(N4CC[S+]([O-])CC4)nc3)CC2)sc1C(=O)c1c(F)cccc1F [Example G4, 1-(4-Amino-2-{1-[6-(1-oxo-thiomorpholine-4-yl)-pyridine-3-sulfonyl]-piperidin-4-ylamino}-thiazol-5-yl)-1-(2,6-difluoro-phenyl)-methanone]
1.3	29	> 500	1.3	CN1CCN(c2ccc(S(=O)(=O)N3CCC(Nc4nc(N)c(C(=O)c5c(F)cccc5F)s4)CC3)cn2)CC1 [Example G5, 1-(4-Amino-2-{1-[6-(4-methyl-piperazin-1-yl)-pyridine-3-sulfonyl]-piperidin-4-ylamino}-thiazol-5-yl)-1-(2,6-difluoro-phenyl)-methanone]
0.54	210	3200	0.69	Nc1nc(NC2CCN(S(=O)(=O)c3ccc(N4CCNCC4)nc3)CC2)sc1C(=O)c1c(F)cccc1F [Example G6, 1-{4-Amino-2-[1-(6-piperazin-1-yl-pyridine-3-sulfonyl)-piperidin-4-ylamino]-thiazol-5-yl}-1-(2,6-difluoro-phenyl)-methanone]
2.2	170	1800	0.52	Nc1nc(NC2CCN(S(=O)(=O)c3ccc(N4CCC(O)CC4)nc3)CC2)sc1C(=O)c1c(F)cccc1F [Example G9, 1-{4-Amino-2-[1-(4Hydroxy-3,4,5,6-tetrahydro-2H-[1,2′]bipyridinyl-5′-sulfonyl)-piperidin-4-ylamino]-thiazol-5-yl}-1-(2,6-difluoro-phenyl)-methanone]
1.2	280	> 500	0.49	Nc1nc(NC2CCN(S(=O)(=O)c3ccc(N4CCCC(O)C4)nc3)CC2)sc1C(=O)c1c(F)cccc1F (stereo not drawn) [Example G12, 1-{4-Amino-2-[1-(3-hydroxy-3,4,5,6-tetrahydro-2H-[1,2′]bipyridinyl-5′-sulfonyl)-piperidin-4-ylamino]-thiazol-5-yl}-1-(2,6-difluoro-phenyl)-methanone Trifluoroacetic Acid Salt]
0.8	140	3500	0.5	Nc1nc(NC2CCN(S(=O)(=O)c3ccc(N4CCC[C@H]4CO)nc3)CC2)sc1C(=O)c1c(F)cccc1F [Example G14, 1-{4-Amino-2-{1-[6-(2S-hydroxymethyl-pyrrolidin-1-yl)-pyridine-3-sulfonyl]-piperidin-4-ylamino}-thiazol-5-yl)-1-(2,6-difluoro-phenyl)-methanone Trifluoroacetic Acid Salt]
0.63	290	> 5000	0.51	Nc1nc(NC2CCN(S(=O)(=O)c3ccc(N4CCN(C=O)CC4)nc3)CC2)sc1C(=O)c1c(F)cccc1F [Example G16, Trifluoroacetic Acid Salt]
0.68	1900	> 5000	< 1	CC1(C)CN(c2ccc(S(=O)(=O)N3CCC(Nc4nc(N)c(C(=O)c5c(F)cccc5F)s4)CC3)cn2)C=N1 [Example G21, 1-(4-Amino-2-{1-[6-(4,4-dimethyl-4,5-dihydro-imidazol-1-yl)-pyridine-3-sulfonyl]-piperidin-4-ylamino}-thiazol-5-yl)-1-(2,6-difluoro-phenyl)-methanone]
0.22	210	3000	0.66	CC1(C)CN(c2ccc(S(=O)(=O)N3CCC(Nc4nc(N)c(C(=O)c5c(F)cccc5F)s4)CC3)cn2)CCN1 [Example G22, 1-(4-Amino-2-{1-[6-(3,3-dimethyl-piperazin-1-yl)-pyridine-3-sulfonyl]-piperidin-4-ylamino}-thiazol-5-yl)-1-(2,6-difluoro-phenyl)-methanone]
